PubChem BioAssay (NCI)
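All cell lines were grown in 96-well plates and treated with compound for 48 hours. GI50 = concentration required for 50% inhibition of growth. TGI denotes the concentration required for complete inhibition of growth.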

Experiments:
Test in all cases: NCI tumour cell line growth inhibition, 48 h
CCRF-CEM leukemia = system: CCRF-CEM leukemia
HL-60(TB) leukemia = system: HL-60(TB) leukemia
HS 578T breast = system: HS 578T breast
HT29 colon = system: HT29 colon
KM12 colon = system: KM12 colon
LOX IMVI melanoma = system: LOX IMVI melanoma
M14 melanoma = system: M14 melanoma
MDA-MB-231 breast = system: MDA-MB-231 breast
RXF 393 renal = system: RXF 393 renal
U251 CNS = system: U251 CNS

Compound	TGI (CCRF-CEM leukemia) [µM]	TGI (HL-60(TB) leukemia) [µM]	TGI (HS 578T breast) [µM]	TGI (HT29 colon) [µM]	TGI (KM12 colon) [µM]	TGI (LOX IMVI melanoma) [µM]	TGI (M14 melanoma) [µM]	TGI (MDA-MB-231 breast) [µM]	TGI (RXF 393 renal) [µM]	TGI (U251 CNS) [µM]	GI50 (HL-60(TB) leukemia) [µM]	GI50 (U251 CNS) [µM]
CC(=O)N(C(C)=O)c1ncc(-n2nc(-c3ccccc3)cc2-c2ccccc2)c(-c2ccccc2)n1	> 10	> 10	> 10	> 10	> 10	> 10	> 10	> 10	> 10	> 10		
O=[N+]([O-])C[C@@]12O[C@]3(O)C4C5CC(C6C5C3C61)C42 (stereo not given in full)	> 100	> 100	> 100	> 100	> 100	> 100	> 100	> 100	> 100	> 100		
[N-]=[N+]=Nc1c([N+](=O)[O-])c(=O)n(-c2ccccc2)c2ccccc12	92.4		72.1	> 100	> 100	43.9	73.1	59.2	38.9	49.3		
O=C1c2ccccc2C(=O)c2c(NCC(O)CO)ccc(NCC(O)CO)c21 (stereo not given)	> 100	> 100	> 100	> 100		> 100		> 100		> 100		
COC(=O)C1=C(OC(=O)/C(=C/c2ccc(Cl)cc2)c2ccc(Cl)cc2)C(C(=O)OC)[C@@]2(O)[C@@H](C(=O)OC)[C@H](C)C[C@@H]1[C@@H]2C(=O)OC (stereo not given in full)	> 100	> 100	> 100	> 100	> 100	> 100	> 100	> 100	> 100	> 100		
CO[C@@]12C[C@@H](C)C3=CCC(C)=C3CC1=C(C)C(=O)O2	> 100	> 100	> 100	> 100	> 100	> 100	> 100	> 100		> 100		
COc1cccc(C(=O)Oc2ccc(OS(=O)(=O)c3ccc(C)cc3)cc2)c1C#N	> 100	> 100	> 100	> 100	> 100	> 100	> 100	> 100	> 100	> 100		
CC1(C)CC(=O)C(C=NC(=S)c2ccccc2)=C(O)C1	> 100	> 100	> 100	> 100	> 100	> 100	> 100	> 100		> 100		
O=[N+]([O-])c1ccc2[nH]c(=S)[nH]c(=S)c2c1	> 100	> 100	> 100	> 100	> 100	> 100	> 100	> 100	> 100	> 100		
C=CCn1c(N)c(C#N)c(C#N)c1-c1ccccc1	> 100	> 100	> 100	> 100	> 100	> 100	> 100	> 100	> 100	> 100		
COC(=O)C1=C(C(=O)OC)N(c2ccc(OC)cc2[N+](=O)[O-])C(c2ccc(C)cc2)=CC1c1ccc(OC)cc1OC (stereo not given)	> 32.4	> 44.3	79.5	> 100	25.7	6.75	> 100	> 74	50	34.8		
O=C1Nc2cccc(Cl)c2/C1=C\c1c(Cl)nc2n1CCS2	> 100	> 100	> 100	> 100	> 100	> 100	> 100	> 100	> 100	> 100		
CO/N=C(\C)c1ccc(Nc2nc3ccccc3c3occc23)cc1	42.2	50.4	30.7	14.5	36.4	32.1	30.2	25.9		35.6		
BrC1=C(Br)C2(SCCS2)[C@H]2C[C@@H]1c1ccccc12	> 100	> 100		> 100	> 100	> 100	> 100	> 100	> 100	> 100		
Cc1c(C)c2c(c(N)c1C#N)C(=O)N(NC(=O)c1ccccc1)C2=O	> 100	> 100	> 100		> 100	> 100	> 100	> 100	> 100	> 100		
Cc1c2n(c(=O)[nH]c1=O)C1OC(CO)C(O2)C1O (stereo not given)	> 100	> 100		> 100	> 100	> 100			> 100	> 100		
COc1cccc(CCNC(=O)Cc2ccccc2CCO)c1	> 100	> 100	> 100	> 100	> 100		> 100	> 100	> 100	> 100		
O=C1COc2cccnc2N1CCCCO	> 100	> 100	> 100		> 100	> 100		> 100	> 100	> 100		
CCCCCCNc1n[nH]c(=O)c2c1nnn2Cc1ccccc1	> 100	> 100		> 100	> 100	> 100	> 100	> 100		> 100		
O=C(O)CCCc1nc2c(n1Cc1ccccc1)C(=O)c1ccccc1C2=O	43.8	88.3	> 100		> 100	> 100	20.6	> 100		> 100		
O=C(/C=C/c1ccccc1)Oc1cccc(O)c1		41.2	> 100	> 100	46.3	> 100	> 100	> 100	> 100	> 100		
NC(N)=NCCN1CC2CCC(CC2)C1			> 100	> 100	> 100	> 100	> 100	> 100	> 100	> 100		
CCN(CC)Cc1ccc(C(=S)Nc2ccc(Cl)cc2)s1	34.1	10.5	32.5	12	26.6	16.2	14.2			26.2		
CO/N=C(\C(=O)OC(=NC1CCCCC1)NC1CCCCC1)c1csc(NC(c2ccccc2)(c2ccccc2)c2ccccc2)n1	> 10	> 10	> 10	> 10	> 10	> 10	> 10		> 10	> 10		

Compound	TGI (CCRF-CEM leukemia) [µM]	TGI (HL-60(TB) leukemia) [µM]	TGI (HS 578T breast) [µM]	TGI (HT29 colon) [µM]	TGI (KM12 colon) [µM]	TGI (LOX IMVI melanoma) [µM]	TGI (M14 melanoma) [µM]	TGI (MDA-MB-231 breast) [µM]	TGI (RXF 393 renal) [µM]	TGI (U251 CNS) [µM]	GI50 (HL-60(TB) leukemia) [µM]	GI50 (U251 CNS) [µM]
Cc1ccc2c(c1)C(=S)N1CSCC1c1nncn1-2 (stereo not given)	> 100		> 100	> 100	> 100	> 100	> 100	> 100	> 100	> 100		
Cn1c(=O)c2c(ncn2CCNC(CO)C(O)c2ccc([N+](=O)[O-])cc2)n(C)c1=O (stereo not given)	> 100	> 100		> 100	> 100	> 100	> 100	> 100		> 100		
NC(N)=NS(=O)(=O)c1ccc(NNc2c3ccccc3nc3c(C(=O)Nc4ccc(S(=O)(=O)Nc5ncccn5)cc4)cccc23)cc1	> 100	> 100		54.6	> 100		89.7	> 100	> 100	> 100		
O=C1C2SC34c5c2c2ccccc2n5CCC3CCCN14 (stereo not given)		> 100	> 100	> 100	> 100	> 100	> 100	> 100	> 100	> 100		
Nc1ccc2c(c1)C(=O)N1CCC[C@H]1C(=O)N2	20.5			> 100	> 100	> 100	> 100	> 100	> 100	> 100		
CCOC(=O)CCC(NC(=O)Cc1ccc(Nc2nc3cc(F)c(F)cc3nc2C(=O)OCC)cc1)C(=O)OCC (stereo not given)	46.9	50	> 100	> 100	> 100	> 100	> 100	> 100		> 100		
N=C(N)C1CN(CCc2c[nH]c3ccccc23)C(=O)NC1=O (stereo not given)	> 100	> 100		> 100		> 100	> 100	> 100		> 100		
[N-]=[N+]=NC1(Cc2ccccc2)C(=O)c2cccc3c2N(CCC3)C1=O (stereo not given)	> 100	> 100		> 100	> 100	> 100	> 100		> 100	> 100		
COc1cc(C2C3C=CC=C4CC=CC(=C43)C3CCC(=O)N32)cc(OC)c1OC (stereo not given)		> 100		> 100	> 100	> 100	> 100	> 100		> 100		
CC1(C)C(C#N)C1C1=C(N2CCOCC2)[C@]2(C)C(OC(=O)c3ccccc3)CC[C@@H]2C1 (stereo not given in full)	> 100		> 100	> 100	> 100		> 100	> 100	> 100	> 100		
CC1(C)[C@@H](Cn2ccc(=O)[nH]c2=O)CC[C@@]1(C)CO	> 100		> 100		> 100	> 100	> 100	> 100	> 100	> 100		
Fc1ccc2c(c1)nc1n2C(c2c(Cl)cccc2Cl)SC1 (stereo not given)		62.3	34.7	29.5	25.8	28.2	29.9	30.5	31.9	25.8		
CC(=O)Nc1sc(Br)cc1S(=O)(=O)c1ccc(Cl)cc1	> 100	63.4	56.3	30.8	45.4		38	> 100	48.4	> 100		
CCCC(=O)NC(NC1CCCCC1)(C(=O)OCC)C(F)(F)F (stereo not given)	> 100	> 100	> 100	> 100	> 100	> 100	> 100		> 100	> 100		
c1ccc(N=C(N2CCCC2)N(CCN2CCCC2)c2ccccc2)cc1	> 100	> 100	> 100	14.8	41.7	> 100	27			> 100		
O=C1/C(=C/c2ccc(Br)s2)NC(=S)N1c1ccccc1	> 100	> 100	> 100	> 100	> 100	> 100		> 100	> 100	> 100		
CCOC(=O)NC(Nc1ccc(C)cc1)(C(F)(F)F)C(F)(F)F	> 100	> 100	> 100	> 100	> 100	> 100	> 100	> 100		> 100		
Cc1ccc(/C=N/Nc2cc(C)c3cccc(C)c3n2)s1	> 100		41.6	13	23.7	4.3	18.2		32.8	> 100		
CC1=NN(c2nc(N)nc(/C(C#N)=C\c3ccc([N+](=O)[O-])s3)n2)C(C)(C)C1	0.0942		> 100	0.722	1.85	0.3	0.8	0.465		0.221		
CC1(C)/C(=N\NC(N)=O)C2CCC1C2 (stereo not given)	> 100	> 100	> 100	> 100	> 100	> 100	> 100			> 100		
N#C[C@H](c1ccccn1)c1nc2ccccc2nc1Cl	> 100	> 100	> 100	> 100	> 100		> 100	> 100	> 100	> 100		
Cc1ccnc2[nH]c(-c3ccc4ccccc4c3)cc(=O)c12	8.43	0.609	5.6	12.4	20.6	12.2	23.2	8.58		10.4	0.202	0.644
CC1CC(OP(=O)(OCc2ccccc2)OCc2ccccc2)[C@@H](OCc2ccccc2)C(OCc2ccccc2)C1OCc1ccccc1 (stereo not given in full)	> 100	> 100	> 100	> 100		> 100	> 100	> 100	9.8	> 100		
